Experimental data reported in ChEMBL document CHEMBL3621051, “Design and synthesis of 4-benzyl-1-(2H)-phthalazinone derivatives as novel androgen receptor antagonists” (Eur J Med Chem, 2015).

These molecules were tested against Androgen receptor (Mus musculus) (UniProt P19091) (assay: Antagonist activity at wild type AR expressed in mouse SC-3 cells assessed as inhibition of 1 nM DHT-induced cell proliferation after 3 days by WST-8 assay).
Sequence of Androgen receptor (Mus musculus) (P19091 whole entry, looked up): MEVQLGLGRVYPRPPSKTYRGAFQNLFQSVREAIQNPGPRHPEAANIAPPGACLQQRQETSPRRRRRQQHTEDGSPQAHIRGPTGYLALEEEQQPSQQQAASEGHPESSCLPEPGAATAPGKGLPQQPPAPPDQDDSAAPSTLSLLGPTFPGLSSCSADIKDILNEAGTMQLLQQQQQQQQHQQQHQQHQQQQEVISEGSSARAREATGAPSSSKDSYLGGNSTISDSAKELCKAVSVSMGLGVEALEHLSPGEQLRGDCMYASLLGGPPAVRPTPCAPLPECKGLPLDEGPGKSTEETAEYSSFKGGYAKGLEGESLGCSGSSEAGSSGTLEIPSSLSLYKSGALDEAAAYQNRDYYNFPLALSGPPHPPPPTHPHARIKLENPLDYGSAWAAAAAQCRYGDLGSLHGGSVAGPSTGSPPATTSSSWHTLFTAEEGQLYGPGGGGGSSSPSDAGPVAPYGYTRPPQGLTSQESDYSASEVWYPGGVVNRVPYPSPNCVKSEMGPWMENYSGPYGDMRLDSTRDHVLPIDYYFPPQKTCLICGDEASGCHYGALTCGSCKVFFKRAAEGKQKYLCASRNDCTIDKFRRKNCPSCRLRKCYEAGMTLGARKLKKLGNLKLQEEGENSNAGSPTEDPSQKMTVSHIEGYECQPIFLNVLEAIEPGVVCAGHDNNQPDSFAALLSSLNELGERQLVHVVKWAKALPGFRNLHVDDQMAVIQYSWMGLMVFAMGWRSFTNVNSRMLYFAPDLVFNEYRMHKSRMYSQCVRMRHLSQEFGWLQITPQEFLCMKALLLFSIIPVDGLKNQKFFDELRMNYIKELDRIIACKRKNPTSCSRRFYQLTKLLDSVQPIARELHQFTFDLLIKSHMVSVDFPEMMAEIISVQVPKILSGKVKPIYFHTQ
For `CCNc1ccc(Cc2n[nH]c(=O)c3ccccc23)cc1`, the IC50 was “Not Active”. With `O=C(O)c1ccccc1Cc1n[nH]c(=O)c2ccccc12` the IC50 was “Not Active”. `CNc1ccc(Cc2n[nH]c(=O)c3ccccc23)cc1` was tested, and the IC50 was “Not Active”. `CN(C)c1ccc(Cc2n[nH]c(=O)c3ccccc23)cc1` was tested, and the IC50 was “Not Active”. With `CC(=O)Nc1ccccc1Cc1n[nH]c(=O)c2ccccc12` the IC50 was “Not Active”. In the case of `CS(=O)(=O)Nc1ccc(Cc2n[nH]c(=O)c3ccccc23)cc1`, the IC50 is reported as “Not Active”. With `CS(=O)(=O)Nc1ccccc1Cc1n[nH]c(=O)c2ccccc12` the IC50 was “Not Active”. `CCN(CC)c1ccc(Cc2n[nH]c(=O)c3ccccc23)cc1` was tested, and the IC50 was “Not Active”. In the case of `CC(=O)Nc1ccc(Cc2n[nH]c(=O)c3ccccc23)cc1`, the IC50 is reported as “Not Active”. In the case of `O=C(Nc1ccc(Cc2n[nH]c(=O)c3ccccc23)cc1)C(F)(F)F`, the IC50 is reported as “Not Active”. `O=[N+]([O-])c1ccc(Cc2nnc(O)c3ccccc23)cc1` was tested, and the IC50 was “Not Active”. `Nc1ccc(Cc2n[nH]c(=O)c3ccccc23)cc1` was tested, and the IC50 was “Not Active”.
